Values of other authors in patent publication US20160354326A1, “LOCAL ANESTHETIC SOLUTION FOR DENTAL AND/OR CONTRAST MEDIA USE” (priority 2014, published 2016).

Conditions: dissolved in solution; sucrose standard = 1
For `O=C(CO)[C@@H](O)[C@H](O)[C@H](O)CO` [fructose], the “sweetness perception rating (times the sweetness of sucrose in solution)” value (from here on “sweetness perception rating”) is given as 1.7.
In the case of `OC[C@@H](O)[C@@H](O)[C@H](O)[C@@H](O)CO` [Sorbitol], the “sweetness perception rating” value is listed as 0.6.
In the case of `OC[C@H]1O[C@@](CO)(O[C@H]2O[C@H](CO)[C@@H](O)[C@H](O)[C@H]2O)[C@@H](O)[C@@H]1O` [Sucrose], the “sweetness perception rating” value is listed as 1.
